Test results from paper PMC6937325, “Tuning PFKFB3 Bisphosphatase Activity Through Allosteric Interference” (Scientific Reports, 2019).
Entries after “also recorded” stand apart in the source; their conditions may differ.

Tests used:
[1] = molecular target: T1, RED-NHS labeled recombinant PFKFB3 (Homo sapiens, UniProt Q16875); test: Microscale thermophoresis (MST) binding assay; settings: for Binding Affinity: 100 nM RED-NHS labeled PFKFB3, 20 min at room temperature, Table 3; for KD: Table S3, list of synthesized peptides from VS
T1 construct: His tag (N, cleaved yes); made in house; host or cells: Escherichia coli BL21 (DE3) Plys
T1 sequence (Q16875 whole entry): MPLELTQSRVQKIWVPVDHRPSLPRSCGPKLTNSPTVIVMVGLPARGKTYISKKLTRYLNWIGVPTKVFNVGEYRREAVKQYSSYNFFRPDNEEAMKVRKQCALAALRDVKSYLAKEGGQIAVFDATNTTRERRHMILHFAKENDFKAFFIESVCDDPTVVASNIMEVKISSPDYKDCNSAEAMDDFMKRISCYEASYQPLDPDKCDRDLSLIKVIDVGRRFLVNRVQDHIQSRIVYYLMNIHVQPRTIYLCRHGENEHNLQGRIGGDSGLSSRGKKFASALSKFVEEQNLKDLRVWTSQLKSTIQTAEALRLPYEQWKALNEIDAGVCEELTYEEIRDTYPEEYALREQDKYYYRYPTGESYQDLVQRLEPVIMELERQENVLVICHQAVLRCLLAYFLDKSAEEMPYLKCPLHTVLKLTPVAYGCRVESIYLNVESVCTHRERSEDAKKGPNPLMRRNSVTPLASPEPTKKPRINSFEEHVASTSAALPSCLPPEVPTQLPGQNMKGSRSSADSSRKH
Protocol: The PFKFB3 plasmid was provided by Prof. Yong-Hwan Lee from Louisiana State University. The His-tagged human inducible bifunctional enzyme (GenBank code: AF056320.1) was expressed in Escherichia coli BL21 (DE3) Plys as reported previously. The PFKFB3 protein was purified using nickel affinity columns and the N-terminal His tag was removed using a standard protocol. After the treatment with thrombin the protein was eluted with an anion-exchange column. The pure protein was concentrated to 2–10 mg/mL and stored in 20 mM Tris HCl pH 8.0, 10 mM NaPi, 5 mM β-mercaptoethanol and 5% glycerol.
The dissociation constant was determined using Nanotemper microscale thermophoresis (MST)[38]. In a typical experiment, a compound was dissolved in MST buffer and mixed with 100 nM RED-NHS labeled recombinant PFKFB3 in 1:1 ratio. The mixture was incubated at room temperature for 20 min. and a full MST measurement was performed. Data were analyzed with Nanotemper software (https://nanotempertech.com/monolith/).

[2] = molecular target: T2, PFKFB3 bisphosphatase (Homo sapiens, UniProt Q16875); test: PFKFB3 bisphosphatase activity by LC-MS/MS quantitation of F6P; type: biochemical; settings: for Effect on bisphosphatase activity / substrate conversion rate vs enzyme alone: Dunnett's multiple comparisons test (two-way ANOVA); for h, Hill coefficient (PFKFB3 in presence of compound) / Vmax (Hill equation, PFKFB3 in presence of compound): Hill fit of bisphosphatase kinetics; for h, Hill coefficient (PFKFB3 in presence of compound): enzyme alone 2.03; for Vmax (Hill equation, PFKFB3 in presence of compound): maximum velocity at enzyme saturation, enzyme alone 0.16; for Enzyme velocity: enzyme 100 nM, compound at 50 µM or equal to its KD, 18 h at 37 °C, Tris buffer pH 8, LC-MS/MS of F6P; for Khalf (Hill equation, PFKFB3 in presence of compound): substrate concentration giving half of maximum velocity, enzyme alone 21.51, in µM (unit assumed)
T2 construct: His tag (N, cleaved yes); made in house; host or cells: Escherichia coli BL21 (DE3) Plys
T2 sequence (Q16875 whole entry): as above
Protocol: HPLC grade water (18 MΩ) was prepared with a Milli-Q purification system (Millipore, Milan, IT). Ammonium formate, fructose-6-phosphate (F6P), Tris HCl, glycerol, 2-mercaptoethanol, sodium phosphate and Amicon-ultra centrifugal filters (30 kDa) were purchased from Sigma Aldrich. F2,6BP was kindly provided by Prof. Lisardo Boscá from Spanish National Research Council in Madrid, Spain. Compound AZ 33 was provided by Carlo DeDominicis, University of Aberdeen. Phosphatase activity of PFKFB3 was measured by quantitation of the reaction product (i.e. F6P) by means of liquid chromatography tandem mass spectrometry. Enzyme reaction rate was determined after 18 h of incubation at 37 °C in sterile (0.22 µm filtered) Tris buffer (20 mM Tris-HCl pH 8; 10 mM sodium phosphate; 5 mM 2-mercaptoethanol and 5% of glycerol) at a final enzyme concentration of 100 nM. Both the enzyme and the substrate (i.e. fructose-2,6-bisphosphate, F2,6BP) were pre-warmed at 37 °C for five min before starting the kinetics by spiking the substrate into the enzyme solution. To plot the enzyme kinetics, the reaction rate was measured in independent experiments at different concentration of substrate (i.e. 5, 10, 15, 20, 25, 30, 40 and 50 µM). Diafiltration on amicon-ultra filters (30 kDa MWCO) was used to stop the reactions. Both the residual substrate and the product were collected in the filtrate, while the enzyme was retained by the filter. The same protocol was used to measure the effect of ligands on enzyme phosphatase activity. For such a purpose the reaction rate was measured at the same substrate concentrations, but the enzyme was incubated with the compound and pre-warmed before starting the kinetics. Compounds were incubated with the enzyme at a concentration 50 µM or equal to their KD, if available. Independent analyses were done without the enzyme (i.e. controls) to assess any degradation of the substrate in the same experimental condition used for the enzyme kinetics. The concentration of the […] produced by the kinetics was determined by interpolation with a calibration curve obtained by the analysis of fructose-6-phosphate standards prepared in a concentration range between 0.5 µM and 50 µM. The velocity was calculated as nanomoles of F6P produced in one min by a nanomole of PFKFB3, subtracting the nanomoles of F6P produced by self-degradation of the substrate from the nanomoles of F6P produced by the enzyme kinetic.
Quantitation of F6P produced was provided by a Surveyor HPLC system connected to a TSQ Quantum Ultra triple quadrupole mass spectrometer by a Finnigan IonMax electrospray ionization (ESI) source assembled with a high flow stainless steel emitter (Thermo Scientific, Rodano, MI, Italy). Filtrate containing the kinetics products were diluted 1:4 in water and placed into the autosampler rack, which was cooled at 8 °C to prevent sample degradation during analyses. […] Table 1 reports the mobile phases and gradient program used for the elution.
The flow from the column was directly sprayed into the mass spectrometer with no further splitting. Nebulization and ionization were achieved by 70 units of sheath gas, 25 units of auxiliary gas, a capillary temperature of 270 °C and a spray voltage of −4.5 kV. The analyzer was set to scan the negative ions reported in Table 2 in Multiple Reaction Monitoring mode (MRM), with a scan time of 0.05 seconds and a resolution of 0.5 m/z for both the first and the third quadrupoles. The MRM transitions reported in Table 2 were previously optimized in a semi-automatic mode to achieve the best instrumental response and selectivity for fructose-6-phosphate, by flow injection of a standard solution.
In order to determine the effect of the PFKFB3-binding compounds on the bisphosphatase activity, a LC-MS/MS analytical method was developed. Firstly, separate kinetics were measured for the enzyme alone or equilibrated with compounds 4–8. […]

[3] = substrate F2,6BP 20 µM, asterisks = significance vs enzyme alone (two-way ANOVA, Dunnett)
[4] = substrate F2,6BP 25 µM, asterisks = significance vs enzyme alone
[5] = substrate F2,6BP 30 µM, asterisks = significance vs enzyme alone
[6] = substrate F2,6BP 40 µM, asterisks = significance vs enzyme alone
[7] = substrate F2,6BP 50 µM, asterisks = significance vs enzyme alone

Row | KD [1] | Effect on bisphosphatase activity / substrate conversion rate vs enzyme alone [2] | h, Hill coefficient (PFKFB3 in presence of compound) [2] | Vmax (Hill equation, PFKFB3 in presence of compound) [2] | Khalf (Hill equation, PFKFB3 in presence of compound) [2] | Compound | Binding Affinity [1] | Enzyme velocity [2, 3] | Enzyme velocity [2, 4] | Enzyme velocity [2, 5] | Enzyme velocity [2, 6] | Enzyme velocity [2, 7]
1 | No binding | no significant variations | 1.95 | 0.19 | 28.12 | SFLLRN-CONH2 [Compound 7] | not able to bind the enzyme; also recorded: No evidence of binding | 0.07 ± 0.01 nmol/min of F6P per nmol of enzyme | 0.07 ± 0.04 nmol/min of F6P per nmol of enzyme | 0.11 ± 0.04 nmol/min of F6P per nmol of enzyme | 0.14 ± 0.01 nmol/min of F6P per nmol of enzyme | 0.14 ± 0.01 nmol/min of F6P per nmol of enzyme
2 | No binding | no significant variations | 2.24 | 0.21 | 32.83 | Trp-Gly-Tyr [Compound 8] | not able to bind the enzyme; also recorded: No evidence of binding | 0.06 ± 0.03 nmol/min of F6P per nmol of enzyme | 0.05 ± 0.00 nmol/min of F6P per nmol of enzyme | 0.10 ± 0.01 nmol/min of F6P per nmol of enzyme | 0.14 ± 0.05 nmol/min of F6P per nmol of enzyme | 0.14 ± 0.04 nmol/min of F6P per nmol of enzyme

Row | Compound | KD [1] | Effect on bisphosphatase activity / substrate conversion rate vs enzyme alone [2] | h, Hill coefficient (PFKFB3 in presence of compound) [2] | Vmax (Hill equation, PFKFB3 in presence of compound) [2] | Khalf (Hill equation, PFKFB3 in presence of compound) [2] | Binding Affinity [1] | Enzyme velocity [2, 3] | Enzyme velocity [2, 4] | Enzyme velocity [2, 5] | Enzyme velocity [2, 6] | Enzyme velocity [2, 7]
3 | CC(C)C[C@H](NC(=O)[C@H](Cc1ccccc1)NC(=O)CNC(=O)[C@H](CO)NC(=O)[C@@H](N)Cc1ccc(O)cc1)C(=O)N[C@H](C(=O)O)[C@@H](C)O [Compound 4] |  | no significant variations | 2.39 | 0.18 | 26.54 |  | 0.05 ± 0.03 nmol/min of F6P per nmol of enzyme | 0.07 ± 0.04 nmol/min of F6P per nmol of enzyme | 0.12 ± 0.03 nmol/min of F6P per nmol of enzyme | 0.13 ± 0.04 nmol/min of F6P per nmol of enzyme | 0.14 ± 0.01 nmol/min of F6P per nmol of enzyme
